{"source": "patent US5572996A", "about": "“In vivo pharmacokinetics of photosensitive drugs and method” (PDT Systems, Inc., priority 1996, dated 1996)", "key": {"[1]": {"parameters": "species or system Spraig Dawley Rats", "conditions": "rat, in vivo, 24 h", "description": "(§1) Twenty-four hours prior to measurement the animals were injected either with a control solution, (carrier vehicle), or various concentrations of the exogenous chromophore, tin ethyl etiopurpurin, (SnET2). SnET2 is a synthetic chlorophyll analogue used in photodynamic light therapy (PDT) that has a relatively weak fluorescence emission, (Quantum yield of 0.01), an emission peak at 670 nm, and a maximum absorption/excitation at 440 nm. At measurement time the animals where anesthetized and then surgically opened to allow measurement of the fluorescence in various tissues. The measurement system used had the following characteristics:\n(§2) A small correction can be made for the endogenous autofluorescence by subtracting the control values from the drug containing tissue to give a NET RATIO. This method permits compensation for background tissue difference while permitting accurate and sensitive measurement of the exogenous chromophore presence in the tissue. Chemical extraction of the SnET2 from the tissue allows correlation of the in-vivo drug concentration to the Ratio signal as shown in Table 3 below. Such a correlation would not be accurate or easily done with out using the Ratio concept."}, "[2]": {"parameters": "species or system Spraig Dawley Rats", "conditions": "rat, in vivo", "description": "as §1\n(a) A single fiber was used to deliver excitation light;\n(b) Excitation light was derived from a HeCd laser at 442 nm, […] total power delivered to the tissue;\n(c) The excitation light was delivered to the target tissue by means of a fiber optic. Fluorescent light emitted by both exogenous and endogenous chromophores in the target tissue was conducted back to the measuring instrument by means of a bundle of smaller optical fibers surrounding the fiber delivering excitation light to the target tissue. Some of these fiber where directed to one PMT (photomultiplier tube) detector filtered for a 570 nm endogenous autofluorescence while the others (12 fibers) were coupled to a PMT filtered at 670 nm for detecting the SnET2 emission;\n(d) Autoranging of the gains of the PMTs over five decades;\n(e) A display of the 570 (Autofluorescence), 670 (SnET2),signals and the ratio of the two;\n(f) An internal reference standard for setting the gain of each PMT prior to each use;\n(g) Computer data storage.\nThe system operates by a foot paddle or a panel button. Activating either one causes the 23 system to take a reading in 1.6 seconds and store it in the display and computer memory. Prior to each use the illuminating probe excitation output is set to 1 mw but this is not necessary due to the ratioing concept.\nas §2"}, "skin cancers [3]": {"tested_on": "skin cancers", "test": "In vivo fluorescence kinetics in a human subject with skin cancers (tumor and normal sites)", "conditions": "0.4 mg/kg SnET2, human subject", "description": "(§3) FIG. 1 presents data from an actual human subject injected with SnET2 for the treatment of a number of skin cancers. A number of normal i.e. control sites, and tumor sites were measured prior to the SnET2 injection, (0.4 mg/kg) and at various times post injection. […] In summary, it is clear from the data provided that the method employing the measurement of the intensity of the exogenous chromophore fluorescence to the autofluorescence of a tissue provide a more accurate means for measuring the pharmacokinetics of an exogenous fluorescing chromophore in vivo. The finding is novel and to the inventor's knowledge has not been taught or acknowledged by others either in a patent or publication. Though the method was discovered and developed during the performance of work associated with photodynamic diagnosis and therapy, the utilization of the present method extends to other types of phototherapy. Any application requiring the in vivo monitoring of rate of change of concentration of a fluorescence chromophore in a tissue could use the present method. For example the in vivo pharmacokinetics of fluorescence labeled monoclonal antibodies for diagnostic or therapeutic application, and certain fluorescent antibiotics such as tetracycline, detection of highly proliferating atherosclerosis, among others. […]"}, "skin cancers [4]": {"tested_on": "skin cancers", "test": "Photodynamic therapeutic response to red light in a human subject", "assay_type": "in vivo", "conditions": "0.4 mg/kg SnET2, human subject", "description": "as §3"}}, "note": "Where two headings read alike, the source gives them in different places."}
{"smiles": "CCOC(=O)C1=Cc2c3nc(cc4nc(cc5[n-]c(cc6[n-]c2c(C)c6CC)c(C)c5CC)C(C)=C4CC)[C@@H](C)[C@]13CC.[Cl-].[Cl-].[Sn]", "note": "(racemic) [SnET2, tin ethyl etiopurpurin]", "values": [{"measurement": "Extraction (tissue drug concentration), kidney", "setting": "[1]; 1 mg/kg", "value": "1.87 ± 0.14", "unit": "µg/g"}, {"measurement": "Extraction (tissue drug concentration), liver", "setting": "[1]; 1 mg/kg", "value": "13.2 ± 0.91", "unit": "µg/g"}, {"measurement": "Extraction (tissue drug concentration), kidney", "setting": "[1]; 2 mg/kg", "value": "3.56 ± 0.11", "unit": "µg/g"}, {"measurement": "Extraction (tissue drug concentration), liver", "setting": "[1]; 2 mg/kg", "value": "27.2 ± 2.5", "unit": "µg/g"}, {"measurement": "Extraction (tissue drug concentration), kidney", "setting": "[1]; 4 mg/kg", "value": "5.49 ± 0.54", "unit": "µg/g"}, {"measurement": "Extraction (tissue drug concentration), liver", "setting": "[1]; 4 mg/kg", "value": "59.2 ± 8.9", "unit": "µg/g"}, {"measurement": "Net Ratio, kidney", "setting": "[2]; 1 mg/kg", "value": "1.73 ± 0.42"}, {"measurement": "Net Ratio, liver", "setting": "[2]; 1 mg/kg", "value": "17.8 ± 2.15"}, {"measurement": "Net Ratio, kidney", "setting": "[2]; 2 mg/kg", "value": "2.48 ± 0.14"}, {"measurement": "Net Ratio, liver", "setting": "[2]; 2 mg/kg", "value": "30.0 ± 5.5"}, {"measurement": "Net Ratio, kidney", "setting": "[2]; 4 mg/kg", "value": "4.24 ± 0.90"}, {"measurement": "Net Ratio, liver", "setting": "[2]; 4 mg/kg", "value": "50.1 ± 12.8"}, {"measurement": "drug uptake in tumors versus control/normal sites (Net Ratio, FIG. 3)", "setting": "skin cancers [3]", "value": "the tumors take up the drug significantly more than the control/normal sites"}, {"measurement": "SnET2 fluorescence at 670 nm with site and time (FIG. 2)", "setting": "skin cancers [3]; unratioed signal", "value": "greatly varies with site and time"}, {"measurement": "response to red light exposure", "setting": "skin cancers [4]", "value": "gave a response correlating to the magnitude of the ratio signal"}]}
